Patent US20240091324A1, “GASTROINTESTINAL HEALTH COMPOSITION” (priority 2019, published 2024)

What was measured:
Assay type in all cases: cell-based, human
[1] = system: IL-8 release from Caco-2 monolayers; experiment: Release of IL-8 from polarised Caco-2 monolayers stimulated with LPS, TNF-α, IFN-β; settings: for % increase in anti-inflammatory activity compared to equivalent formulation without bromelain (difference of means): plus 80 ug/ml bromelain
Description: Inflammatory model of Caco-2 polarised monolayer stimulated with inflammatory mediators LPS, TNF-α, IFN-β: Polarised Caco-2 models were generated as previously described. When cell cultures reached a baseline TER of >1000/cm^2, the monolayers were stimulated by addition of 0.6 ml containing 50 ng/ml IFN-β, 10 μg/ml LPS and 5 ng/ml TNFα to the basolateral compartment. Immediately after the addition of the stimulation cocktail 0.25 ml of GaRP±0-80 μg/ml bromelain was applied to the apical compartment. After the 24 h incubation culture supernatants from the apical side were collected for quantitation of IL-8.
The human colorectal adenocarcinoma cell-line C2BBe1 was grown and maintained in Dulbecco's modified Eagle's medium (DMEM) supplemented with 10% v/v fetal bovine serum (FBS), 4 mM L-glutamine, 100 U/ml penicillin and […] streptomycin. All experiments were conducted on C2BBe1 cells within 12 passages after thawing.
In an experiment to evaluate the anti-inflammatory effect of bromelain or various GaRP formulations, 0.25 ml of test samples was applied to the apical side for 24 h, at the same time 0.6 ml of a cocktail containing 50 ng/ml IFN+10 ug/ml LPS+5 ng/ml TNF was added to the basolateral side in this model. After the 24 h incubation culture supernatants from the apical side were collected and IL-8 quantitated by ELISA.

Enterocyte = experiment: Observed therapeutic effective dose determined in the in vitro experiments (Table 4)
Description: (§1) The observed therapeutic effective dose was determined in the in vitro experiments described herein.
(§2) Table 4 summarises the observed therapeutic effective dose for each GaRP formulation component.

Macrophage = experiment: as above
Description: as §1, §2

[2] = formulation or component plus 80 ug/ml bromelain, 24 h
[3] = without bromelain, test sample apical 24 h, IFN+LPS+TNF cocktail basolateral

Structure (SMILES) | % inhibition of the release of IL-8 Median ± SEM [1, 2] [%] | % increase in anti-inflammatory activity compared to equivalent formulation without bromelain (difference of means) [1] [%] | % inhibition of the release of IL-8 Median ± SEM [1, 3] [%] | observed therapeutic effective dose, Target cell Enterocyte (pg/cell) (Enterocyte) | observed therapeutic effective dose, Target cell Macrophage (pg/cell) (Macrophage)
N=C(N)NCCC[C@H](N)C(=O)O [L-arginine] | 73 ± 8 | 67 | 6 ± 8 | – | –
NC(=O)CC[C@H](N)C(=O)O [L-glutamine] | 83 ± 1 | 72 | 11 ± 7 | – | –
CSCC[C@H](N)C(=O)O [L-methionine] | 73 ± 10 | 53 | 20 ± 5 | – | –
C[C@@H](O)[C@H](N)C(=O)O [L-threonine] | 73 ± 11 | 55 | 18 ± 1 | 15 | 300
